# Assay results: publication PMC12624743 (ACS Infectious Diseases, 2025)
# How the values were obtained:
# [1] = system: N. gonorrhoeae topoisomerase IV ParC^E91G; experiment: biochemical; settings: ParC E91G vs WT
# Protocol: (§1) Some experiments replaced MgCl2 with an equivalent concentration of CaCl2 (10 mM), or 1.5 mM ATP was added to assay mixtures.
# (§2) Reactions were incubated at 37 °C for 30 min with WT and mutant (GyrA^D90N, GyrA^A92T, GyrA^S91F, GyrA^D95G, or GyrA^S91F/D95G) N. gonorrhoeae gyrase, 10 min with WT N. gonorrhoeae topoisomerase IV, and 20 min with mutant (ParC^D86N, ParC^S88P, ParC^S87N, or ParC^E91G) N. gonorrhoeae topoisomerase IV. Enzyme-DNA cleavage complexes were trapped by adding 2 μL of 5% SDS followed by 2 μL of 250 mM EDTA (pH 8.0). Proteinase K was added (2 μL of a 0.8 mg/mL solution), and reaction mixtures were incubated at 45 °C for 30 min to digest the enzyme. Samples were mixed with 2 μL of loading buffer and heated at 45 °C for 2 min prior to electrophoresis in 1% agarose gels in 40 mM Tris-acetate (pH 8.3), and 2 mM EDTA containing 0.5 μg/mL ethidium bromide. DNA bands were visualized by midrange ultraviolet light and quantified using an Alpha Innotech digital imaging system (Protein Simple). Single-stranded DNA cleavage was monitored by the conversion of negatively supercoiled to nicked plasmid molecules.
# [2] = system: N. gonorrhoeae topoisomerase IV ParC^S88P; experiment: biochemical; settings: ParC S88P vs WT topoisomerase IV
# Protocol: as §1, §2
# [3] = system: N. gonorrhoeae topoisomerase IV ParC^E91G; experiment: Topoisomerase IV-catalyzed DNA decatenation assay, ParC^E91G; type: biochemical, Neisseria gonorrhoeae; settings: ParC E91G vs WT
# Protocol: All proteins were His-tagged. N. gonorrhoeae WT gyrase (GyrA, GyrB) and topoisomerase IV (ParC, ParE) subunits as well as mutant GyrA^D90N, GyrA^A92T, GyrA^S91F, and GyrA^S91F/D95G gyrase and ParC^D86N and ParC^S88P topoisomerase IV were prepared as described previously. , N. gonorrhoeae mutant GyrA^D95G gyrase and mutant ParC^S87N and ParC^E91G topoisomerase IV were generated using a QuickChange II XL site-directed mutagenesis kit (Agilent Technologies) with custom primers for the desired mutations. Mutant N. gonorrhoeae GyrA and ParC subunits were expressed and purified as described by Ashley et al. with the following modifications to optimize protein expression and lysis: (1) GyrA^D95G was expressed for 2.5 h and ParC^S87N and ParC^E91G were expressed for 3 h before harvesting, and (2) cells were lysed by sonication using a digital sonifier (Branson). The identities of all constructs were confirmed by DNA sequencing, and all enzymes were stored at −80 °C. In all assays, N. gonorrhoeae gyrase or topoisomerase IV was used as a 1:1 GyrA:GyrB or ParC:ParE mixture, respectively, and the stated enzyme concentration reflects that of the holoenzyme (A2B2). […]
# [4] = target: T1, N. gonorrhoeae gyrase GyrA^S91F/D95G (Neisseria gonorrhoeae, UniProt P48371, D95G/S91F); experiment: Gyrase-catalyzed DNA supercoiling assay, GyrA^S91F/D95G; type: biochemical; settings: read-out: IC50, inhibition of DNA supercoiling
# T1 construct: His; made in house
# Protocol: (§3) All proteins were His-tagged. N. gonorrhoeae WT gyrase (GyrA, GyrB) and topoisomerase IV (ParC, ParE) subunits as well as mutant GyrA^D90N, GyrA^A92T, GyrA^S91F, and GyrA^S91F/D95G gyrase and ParC^D86N and ParC^S88P topoisomerase IV were prepared as described previously. , N. gonorrhoeae mutant GyrA^D95G gyrase and mutant ParC^S87N and ParC^E91G topoisomerase IV were generated using a QuickChange II XL site-directed mutagenesis kit (Agilent Technologies) with custom primers for the desired mutations. […] The identities of all constructs were confirmed by DNA sequencing, and all enzymes were stored at −80 °C. In all assays, N. gonorrhoeae gyrase or topoisomerase IV was used as a 1:1 GyrA:GyrB or ParC:ParE mixture, respectively, and the stated enzyme concentration reflects that of the holoenzyme (A2B2).
# (§4) Samples were mixed with 2 μL of loading dye [60% sucrose, 10 mM Tris–HCl (pH 7.9), 0.5% bromophenol blue, and 0.5% xylene cyanol FF] and incubated at 45 °C for 2 min before being subjected to electrophoresis on 1% agarose gels in 100 mM Tris-borate (pH 8.3) and 2 mM EDTA. […] DNA bands were visualized with medium-range ultraviolet light and quantified using an Alpha Innotech digital imaging system (Protein Simple). DNA supercoiling was monitored by the conversion of relaxed to supercoiled plasmid.
# [5] = target: T2, N. gonorrhoeae gyrase GyrA^A92T (Neisseria gonorrhoeae, UniProt P48371, A92T); experiment: Gyrase-catalyzed DNA supercoiling assay, GyrA^A92T; type: biochemical
# T2 construct: His; made in house
# Protocol: as §3, §4
# [6] = system: N. gonorrhoeae FA1090 (ATCC 700825); experiment: MIC by agar dilution, parental strain FA1090; type: cell-based; settings: Neisseria gonorrhoeae, ATCC700825, parental strain FA1090, GyrA WT / ParC WT
# Protocol: A series of isogenic N. gonorrhoeae strains was constructed that carried the specific target mutations GyrA^A92T or GyrA^D90N either alone or in combination with ParC^D86N or GyrA^S91F/D95G in a ciprofloxacin-susceptible strain, FA1090 (ATCC 700825).
# All N. gonorrhoeae isolates were cultured and grown on GC agar plates or in fastidious broth (Remel, 07664). Minimum inhibitory concentration (MIC) of test compounds was determined by an agar dilution method, the reference testing method for N. gonorrhoeae according to the standards of the Clinical and Laboratory Standards Institute and the CDC. MIC values were determined after incubation at 37 °C for 48 h in 5% CO2.
# T2 sequence (P48371 whole entry A92T): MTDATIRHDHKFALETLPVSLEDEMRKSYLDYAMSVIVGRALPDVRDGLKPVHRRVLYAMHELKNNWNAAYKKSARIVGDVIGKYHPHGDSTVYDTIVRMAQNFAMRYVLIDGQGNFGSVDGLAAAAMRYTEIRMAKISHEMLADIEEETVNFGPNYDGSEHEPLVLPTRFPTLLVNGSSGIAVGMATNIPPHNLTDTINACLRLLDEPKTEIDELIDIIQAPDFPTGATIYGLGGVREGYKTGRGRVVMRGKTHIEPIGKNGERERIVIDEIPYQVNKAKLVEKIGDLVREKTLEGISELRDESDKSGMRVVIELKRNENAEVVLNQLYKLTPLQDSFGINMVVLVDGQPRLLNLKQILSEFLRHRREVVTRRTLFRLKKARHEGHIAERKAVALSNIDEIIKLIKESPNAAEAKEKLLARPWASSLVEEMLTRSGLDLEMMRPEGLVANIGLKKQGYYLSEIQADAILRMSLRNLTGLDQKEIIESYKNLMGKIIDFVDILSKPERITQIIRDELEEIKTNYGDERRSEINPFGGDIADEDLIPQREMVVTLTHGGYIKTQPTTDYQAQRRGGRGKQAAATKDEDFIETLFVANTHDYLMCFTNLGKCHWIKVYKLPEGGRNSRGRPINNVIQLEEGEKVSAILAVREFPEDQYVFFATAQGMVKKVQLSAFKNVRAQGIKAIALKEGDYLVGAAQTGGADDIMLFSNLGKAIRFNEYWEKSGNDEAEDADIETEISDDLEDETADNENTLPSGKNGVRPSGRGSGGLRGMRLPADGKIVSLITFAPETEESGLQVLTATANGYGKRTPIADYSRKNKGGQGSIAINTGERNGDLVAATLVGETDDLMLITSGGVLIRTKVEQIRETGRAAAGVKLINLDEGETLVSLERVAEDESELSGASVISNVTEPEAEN
# T2 sequence (P22118 whole entry partner): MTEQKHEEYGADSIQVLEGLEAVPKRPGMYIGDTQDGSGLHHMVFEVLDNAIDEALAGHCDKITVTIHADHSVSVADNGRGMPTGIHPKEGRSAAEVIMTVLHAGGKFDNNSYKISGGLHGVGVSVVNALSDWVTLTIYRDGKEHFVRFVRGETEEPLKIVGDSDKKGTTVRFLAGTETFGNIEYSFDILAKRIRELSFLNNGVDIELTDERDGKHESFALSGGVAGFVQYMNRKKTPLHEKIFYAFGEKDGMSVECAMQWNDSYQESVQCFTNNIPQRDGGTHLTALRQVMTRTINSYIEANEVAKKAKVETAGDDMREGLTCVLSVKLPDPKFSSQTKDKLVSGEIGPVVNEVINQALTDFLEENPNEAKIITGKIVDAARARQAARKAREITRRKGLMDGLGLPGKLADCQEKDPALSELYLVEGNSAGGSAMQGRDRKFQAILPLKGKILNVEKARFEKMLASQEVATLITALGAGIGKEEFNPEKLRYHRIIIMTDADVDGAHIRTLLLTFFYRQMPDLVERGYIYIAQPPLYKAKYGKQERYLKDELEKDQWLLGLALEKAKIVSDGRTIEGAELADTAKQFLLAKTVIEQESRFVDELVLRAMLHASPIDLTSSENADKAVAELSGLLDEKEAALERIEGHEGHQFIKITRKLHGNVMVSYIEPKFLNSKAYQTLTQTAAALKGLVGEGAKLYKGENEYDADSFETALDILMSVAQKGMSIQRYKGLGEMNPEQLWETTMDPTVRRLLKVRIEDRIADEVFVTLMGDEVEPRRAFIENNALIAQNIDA
# T1 sequence (P48371 whole entry S91F/D95G): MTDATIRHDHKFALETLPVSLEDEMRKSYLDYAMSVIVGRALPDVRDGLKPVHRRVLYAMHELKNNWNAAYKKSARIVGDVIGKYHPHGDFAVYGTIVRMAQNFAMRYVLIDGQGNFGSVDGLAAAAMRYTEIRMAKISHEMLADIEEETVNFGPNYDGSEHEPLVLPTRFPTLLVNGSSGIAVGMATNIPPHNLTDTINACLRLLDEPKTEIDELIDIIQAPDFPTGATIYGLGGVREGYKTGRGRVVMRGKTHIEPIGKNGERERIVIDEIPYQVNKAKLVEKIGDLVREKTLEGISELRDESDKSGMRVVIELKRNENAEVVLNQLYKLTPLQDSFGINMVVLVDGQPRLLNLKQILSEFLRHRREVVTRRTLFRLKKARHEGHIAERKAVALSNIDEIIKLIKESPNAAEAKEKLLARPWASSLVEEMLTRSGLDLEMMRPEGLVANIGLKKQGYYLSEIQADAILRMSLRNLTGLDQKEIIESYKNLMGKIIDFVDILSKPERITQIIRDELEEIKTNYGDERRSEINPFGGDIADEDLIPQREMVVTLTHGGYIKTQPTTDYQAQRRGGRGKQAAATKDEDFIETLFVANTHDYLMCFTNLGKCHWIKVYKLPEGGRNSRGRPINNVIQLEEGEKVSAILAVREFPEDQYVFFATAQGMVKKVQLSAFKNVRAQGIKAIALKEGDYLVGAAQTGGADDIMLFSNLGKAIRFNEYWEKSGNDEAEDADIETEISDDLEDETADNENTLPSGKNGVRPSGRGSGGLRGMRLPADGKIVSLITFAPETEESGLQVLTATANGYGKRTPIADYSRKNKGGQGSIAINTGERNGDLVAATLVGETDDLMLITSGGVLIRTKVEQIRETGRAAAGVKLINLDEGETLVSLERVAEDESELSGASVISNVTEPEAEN
# T1 sequence (P22118 whole entry partner): as the sequence (P22118 whole entry partner) above
smiles,measurement,setting,value
O=c1ccc2ncc(=O)n3c2n1C[C@H]3CN1CCC(NCc2cc3c(cn2)OCCC3)CC1 [gepotidacin],fold decrease of Adj-Max Cleavage vs WT,[1],~3.2 fold
same,more single-stranded DNA cleavage with mutant enzyme compared to WT,[2],~40%
same,fold lower decatenation IC50 vs WT topoisomerase IV,[3],~1.2 fold
same,IC50,[4],3.6 ± 2.4 µM
same,IC50,"[5]; GyrA A92T gyrase, read-out: IC50, inhibition of DNA supercoiling",8.5 ± 2.1 µM
same,fold increase of supercoiling IC50 vs WT gyrase,[5]; GyrA A92T vs WT,~1.7 fold
same,MIC,[6],0.125 µg/mL
